Experimental data as given in patent US20240391931A1 (Bristol-Myers Squibb Company, priority 2021, published 2024).

molecular target: T1, EGFR WT (Homo sapiens, UniProt P00533); assay: Enzymatic assay EGFR WT (method c); format: biochemical; conditions: [EGFR WT]=2 nM, [ATP]=1 mM, [Peptide 22]=1 μM
T1 construct: purchased Thermo Fisher, Carlsbad, CA ERBB1 PR7295B
Summary of the method: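 Microfluidic mobility-shift kinase assay with Peptide 22 (1 μM) in HEPES pH 7.5, MnCl2, MgCl2, Tween 20, TCEP. HER2 WT 12.5 nM and HER2 YVMA 5 nM each used 25 μM ATP; EGFR WT 2 nM used 1 mM ATP. IC50 came from initial-velocity (0–3600 s) percent inhibition, fitted to a variable-slope model.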

T1 sequence (P00533 25-1210): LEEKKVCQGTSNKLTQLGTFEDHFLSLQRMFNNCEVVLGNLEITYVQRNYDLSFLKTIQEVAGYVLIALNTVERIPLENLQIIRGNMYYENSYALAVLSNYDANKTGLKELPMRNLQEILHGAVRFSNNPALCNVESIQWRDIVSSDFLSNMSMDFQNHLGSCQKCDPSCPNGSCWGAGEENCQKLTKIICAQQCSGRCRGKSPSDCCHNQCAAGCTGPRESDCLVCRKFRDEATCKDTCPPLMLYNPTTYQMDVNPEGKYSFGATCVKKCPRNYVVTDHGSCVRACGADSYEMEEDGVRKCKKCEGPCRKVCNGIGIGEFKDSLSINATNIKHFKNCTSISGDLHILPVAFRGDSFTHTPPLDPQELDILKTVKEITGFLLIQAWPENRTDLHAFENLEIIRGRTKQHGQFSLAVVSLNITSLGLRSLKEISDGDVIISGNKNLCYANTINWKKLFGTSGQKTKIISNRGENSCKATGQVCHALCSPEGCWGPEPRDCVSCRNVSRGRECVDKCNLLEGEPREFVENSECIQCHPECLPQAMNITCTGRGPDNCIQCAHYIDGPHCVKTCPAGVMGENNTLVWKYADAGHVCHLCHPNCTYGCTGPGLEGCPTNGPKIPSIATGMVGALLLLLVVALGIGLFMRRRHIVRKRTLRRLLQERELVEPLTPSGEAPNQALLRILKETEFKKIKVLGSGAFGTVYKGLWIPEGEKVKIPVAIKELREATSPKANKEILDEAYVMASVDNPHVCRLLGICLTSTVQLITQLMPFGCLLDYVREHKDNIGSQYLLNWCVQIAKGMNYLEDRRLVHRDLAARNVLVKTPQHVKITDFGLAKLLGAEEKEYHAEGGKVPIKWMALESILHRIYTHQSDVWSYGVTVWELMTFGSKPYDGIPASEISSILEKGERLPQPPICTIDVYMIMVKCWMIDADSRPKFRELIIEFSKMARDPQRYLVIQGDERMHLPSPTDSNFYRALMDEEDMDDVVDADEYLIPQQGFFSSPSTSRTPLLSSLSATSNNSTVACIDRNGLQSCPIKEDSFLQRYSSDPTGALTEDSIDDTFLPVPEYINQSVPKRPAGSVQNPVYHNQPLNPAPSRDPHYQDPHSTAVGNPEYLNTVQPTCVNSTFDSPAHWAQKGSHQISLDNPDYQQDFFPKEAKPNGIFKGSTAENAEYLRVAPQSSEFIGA

IC50 [µM] | SMILES
> 10 | C=CC(=O)N1CCc2c(sc3ncnc(Nc4ccc(Oc5ccc6ncnn6c5)c(Cl)c4)c23)C1 [Compound 4, 1-(4-((4-([1,2,4]triazolo[1,5-a]pyridin-6-yloxy)-3-chlorophenyl)amino)-5,8-dihydropyrido[4′,3′:4,5]thieno[2,3-d]pyrimidin-7(6H)-yl)prop-2-en-1-one]
> 10 | Cc1ccc(Oc2ccc(Nc3ncnc4sc5c(c34)CCN(C(=O)/C=C/CN3CC4CC3CO4)C5)cc2C)cn1 (stereo not shown) [Compound 26]
> 10 | Cc1ccc(Oc2ccc(Nc3ncnc4sc5c(c34)CCN(C(=O)/C=C/CNC3COC3)C5)cc2C)cn1 [Compound 38]
> 10 | CNC(=O)CNC/C=C/C(=O)N1CCc2c(sc3ncnc(Nc4ccc(Oc5ccc(C)nc5)c(C)c4)c23)C1 [Compound 39]
> 10 | Cc1ccc(Oc2ccc(Nc3ncnc4sc5c(c34)CCN(C(=O)/C=C/CN3CC(O)CO3)C5)cc2C)cn1 (stereo not shown) [Compound 43]
1 to 10 | Cc1ccc(Oc2ccc(Nc3ncnc4sc5c(c34)CCN(C(=O)/C=C/CNC3CCOC3)C5)cc2C)cn1 (stereo not shown) [Compound 47]
> 10 | Cc1ccc(Oc2ccc(Nc3ncnc4sc5c(c34)CCN(C(=O)/C=C/CNCC3CN(C)CCO3)C5)cc2C)cn1 (stereo not shown) [Compound 48]
1 to 10 | Cc1ccc(Oc2ccc(Nc3ncnc4sc5c(c34)CCN(C(=O)/C=C/CNCc3cc(C)n[nH]3)C5)cc2C)cn1 [Compound 49]
1 to 10 | Cc1ccc(Oc2ccc(Nc3ncnc4sc5c(c34)CCN(C(=O)/C=C/CNCc3ccsc3)C5)cc2C)cn1 [Compound 52]
> 10 | CON(C)C/C=C/C(=O)N1CCc2c(sc3ncnc(Nc4ccc(Oc5ccc(C)nc5)c(C)c4)c23)C1 [Compound 56]
> 10 | Cc1ccc(Oc2ccc(Nc3ncnc4sc5c(c34)CCN(C(=O)/C=C/CN3CC4(C3)CS(=O)(=O)C4)C5)cc2C)cn1 [Compound 57]
> 10 | COCCN1CCN(C/C=C/C(=O)N2CCc3c(sc4ncnc(Nc5ccc(Oc6ccc(C)nc6)c(C)c5)c34)C2)CC1 [Compound 59]
> 10 | Cc1ccc(Oc2ccc(Nc3ncnc4sc5c(c34)CCN(C(=O)/C=C/CN3CCC(n4ccnc4)CC3)C5)cc2C)cn1 [Compound 62]
> 10 | Cc1ccc(Oc2ccc(Nc3ncnc4sc5c(c34)CCN(C(=O)/C=C/CN3CCC4(CCOC4)C3)C5)cc2C)cn1 (stereo not shown) [Compound 67]
> 10 | Cc1ccc(Oc2ccc(Nc3ncnc4sc5c(c34)CCN(C(=O)/C=C/CN[C@H]3CC[C@H](OC4CC4)CC3)C5)cc2C)cn1 [Compound 68]
1 to 10 | Cc1ccc(Oc2ccc(Nc3ncnc4sc5c(c34)CCN(C(=O)/C=C/CN[C@H]3CC[C@H](OC(F)F)CC3)C5)cc2C)cn1 [Compound 69]
1 to 10 | Cc1ccc(Oc2ccc(Nc3ncnc4sc5c(c34)CCN(C(=O)/C=C/CN[C@H]3CC[C@H](OCC(F)(F)F)CC3)C5)cc2C)cn1 [Compound 70]
1 to 10 | Cc1ccc(Oc2ccc(Nc3ncnc4sc5c(c34)CCN(C(=O)/C=C/CNC3CCC(C(=O)N(C)C)CC3)C5)cc2C)cn1 (stereo not shown) [Compound 71]
1 to 10 | Cc1ccc(Oc2ccc(Nc3ncnc4sc5c(c34)CCN(C(=O)/C=C/CN3CCC(O)C3)C5)cc2C)cn1 (stereo not shown) [Compound 74]
1 to 10 | Cc1ccc(Oc2ccc(Nc3ncnc4sc5c(c34)CCN(C(=O)/C=C/CN[C@@H](C)CO)C5)cc2C)cn1 [Compound 75]
1 to 10 | Cc1ccc(Oc2ccc(Nc3ncnc4sc5c(c34)CCN(C(=O)/C=C/CN3CC4CC4C3)C5)cc2C)cn1 (stereo not shown) [Compound 76]
> 10 | Cc1cc(Nc2ncnc3sc4c(c23)CCN(C(=O)/C=C/CN2CC3CC2CO3)C4)ccc1Oc1ccc2ncnn2c1 (stereo not shown) [Compound 77]
> 10 | Cc1cc(Nc2ncnc3sc4c(c23)CCN(C(=O)/C=C/CN(C)C(C)(C)C)C4)ccc1Oc1ccc2ncnn2c1 [Compound 80]

Further lines, the molecule ahead of its results:

SMILES | IC50 [µM]
Cc1cc(Nc2ncnc3sc4c(c23)CCN(C(=O)/C=C/CN(C)C)C4)ccc1Oc1ccc2ncnn2c1 [Compound 3, (E)-1-(4-((4-([1,2,4]triazolo[1,5-a]pyridin-6-yloxy)-3-methylphenyl)amino)-5,8-dihydropyrido[4′,3′:4,5]thieno[2,3-d]pyrimidin-7(6H)-yl)-4-(dimethylamino)but-2-en-1-one] | 1 to 10
CN(C)C/C=C/C(=O)N1CCc2c(sc3ncnc(Nc4ccc(Oc5ccc6ncnn6c5)c(Cl)c4)c23)C1 [Compound 5, (E)-1-(4-((4-([1,2,4]triazolo[1,5-a]pyridin-6-yloxy)-3-chlorophenyl)amino)-5,8-dihydropyrido[4′,3′:4,5]thieno[2,3-d]pyrimidin-7(6H)-yl)-4-(dimethylamino)but-2-en-1-one] | > 10
Cc1cc(Nc2ncnc3sc4c(c23)CCN(C(=O)/C=C/CN2CC3CCC(C3)C2)C4)ccc1Oc1ccc2ncnn2c1 [Compound 20] | 1 to 10
Cc1ncc(Oc2ccc(Nc3ncnc4sc5c(c34)CCN(C(=O)/C=C/CN(C)C)C5)cc2C)cn1 [Compound 21, (E)-4-(dimethylamino)-1-(4-((3-methyl-4-((2-methylpyrimidin-5-yl)oxy)phenyl)amino)-5,8-dihydropyrido[4′,3′:4,5]thieno[2,3-d]pyrimidin-7(6H)-yl)but-2-en-1-one] | > 10
Cc1cc(Nc2ncnc3sc4c(c23)CCN(C(=O)/C=C/CN(C)C)C4)ccc1Oc1ccc2[nH]ncc2c1 [Compound 22, (E)-1-(4-((4-((1H-indazol-5-yl)oxy)-3-methylphenyl)amino)-5,8-dihydropyrido[4′,3′:4,5]thieno[2,3-d]pyrimidin-7(6H)-yl)-4-(dimethylamino)but-2-en-1-one] | 1 to 10
Cc1cc(Nc2ncnc3sc4c(c23)CCN(C(=O)/C=C/CN(C)C)C4)ccc1Oc1ccc2cn[nH]c2c1 [Compound 23, (E)-1-(4-((4-((1H-indazol-6-yl)oxy)-3-methylphenyl)amino)-5,8-dihydropyrido[4′,3′:4,5]thieno[2,3-d]pyrimidin-7(6H)-yl)-4-(dimethylamino)but-2-en-1-one] | 1 to 10
Cc1ccc(Oc2ccc(Nc3ncnc4sc5c(c34)CCN(C(=O)/C=C/CN(CCO)CCO)C5)cc2C)cn1 [Compound 37] | 1 to 10
Cc1ccc(Oc2ccc(Nc3ncnc4sc5c(c34)CCN(C(=O)/C=C/CNC3CC3)C5)cc2C)cn1 [Compound 40] | 1 to 10
Cc1ccc(Oc2ccc(Nc3ncnc4sc5c(c34)CCN(C(=O)/C=C/CN3CCCC3C(N)=O)C5)cc2C)cn1 (stereo not shown) [Compound 41] | 1 to 10
Cc1ccc(Oc2ccc(Nc3ncnc4sc5c(c34)CCN(C(=O)/C=C/CN3C4CCC3CC4)C5)cc2C)cn1 [Compound 44] | 1 to 10
Cc1ccc(Oc2ccc(Nc3ncnc4sc5c(c34)CCN(C(=O)/C=C/CNCCS(C)(=O)=O)C5)cc2C)cn1 [Compound 45] | > 10
CCN1CCN(C/C=C/C(=O)N2CCc3c(sc4ncnc(Nc5ccc(Oc6ccc(C)nc6)c(C)c5)c34)C2)CC1 [Compound 46] | > 10
CC(=O)N1CCN(C/C=C/C(=O)N2CCc3c(sc4ncnc(Nc5ccc(Oc6ccc(C)nc6)c(C)c5)c34)C2)CC1 [Compound 51] | > 10
Cc1ccc(Oc2ccc(Nc3ncnc4sc5c(c34)CCN(C(=O)/C=C/CN3CC(O)C3)C5)cc2C)cn1 [Compound 53] | > 10
Cc1ccc(Oc2ccc(Nc3ncnc4sc5c(c34)CCN(C(=O)/C=C/CNC3CCC3)C5)cc2C)cn1 [Compound 54] | > 10
Cc1ccc(Oc2ccc(Nc3ncnc4sc5c(c34)CCN(C(=O)/C=C/CN3CC=CCC3)C5)cc2C)cn1 [Compound 55] | > 10
Cc1ccc(Oc2ccc(Nc3ncnc4sc5c(c34)CCN(C(=O)/C=C/CN3CCN4C(=O)CCC4C3)C5)cc2C)cn1 (stereo not shown) [Compound 58] | > 10
Cc1ccc(Oc2ccc(Nc3ncnc4sc5c(c34)CCN(C(=O)/C=C/CN3CCn4cc(C(F)(F)F)nc4C3)C5)cc2C)cn1 [Compound 61] | > 10
Cc1cc(Nc2ncnc3sc4c(c23)CCN(C(=O)/C=C/CN(C)C)C4)ccc1Oc1cccc(B(O)O)c1 [Compound 64, (E)-(3-(4-((7-(4-(dimethylamino)but-2-enoyl)-5,6,7,8-tetrahydropyrido[4′,3′:4,5]thieno[2,3-d]pyrimidin-4-yl)amino)-2-methylphenoxy)phenyl)boronic acid] | 1 to 10
Cc1ccc(Oc2ccc(Nc3ncnc4sc5c(c34)CCN(C(=O)/C=C/CNCCO)C5)cc2C)cn1 [Compound 65] | 1 to 10
Cc1ccc(Oc2ccc(Nc3ncnc4sc5c(c34)CCN(C(=O)/C=C/CN3C[C@H]4CC[C@@H](C3)O4)C5)cc2C)cn1 [Compound 66] | > 10
Cc1ccc(Oc2ccc(Nc3ncnc4sc5c(c34)CCN(C(=O)/C=C/CNC34CCC(C#N)(CC3)CC4)C5)cc2C)cn1 [Compound 72] | 1 to 10
Cc1ccc(Oc2ccc(Nc3ncnc4sc5c(c34)CCN(C(=O)/C=C/CN[C@H]3CCC[C@H](O)C3)C5)cc2C)cn1 [Compound 73] | 1 to 10
Cc1cc(Nc2ncnc3sc4c(c23)CCN(C(=O)/C=C/CN2CC3C(CO)C3C2)C4)ccc1Oc1ccc2ncnn2c1 (stereo not shown) [Compound 81] | > 10
Cc1cc(Nc2ncnc3sc4c(c23)CCN(C(=O)/C=C/CN2CC3CC(C3)C2)C4)ccc1Oc1ccc2ncnn2c1 [Compound 82] | > 10
Cc1cc(Nc2ncnc3sc4c(c23)CCN(C(=O)/C=C/CN2CC(C)OC(C)C2C)C4)ccc1Oc1ccc2ncnn2c1 (stereo not shown) [Compound 83] | > 10
Cc1cc(Nc2ncnc3sc4c(c23)CCN(C(=O)/C=C/CN2CC(C)(C)OC(C)(C)C2)C4)ccc1Oc1ccc2ncnn2c1 [Compound 84] | > 10
O=C(/C=C/CN1CC2CC(C2)C1)N1CCc2c(sc3ncnc(Nc4ccc(Oc5ccc6ncnn6c5)c(Cl)c4)c23)C1 [Compound 85] | 1 to 10
C=C(CN1CCc2c(sc3ncnc(Nc4ccc(Oc5ccc(C)nc5)c(C)c4)c23)C1)C(=O)OCC [Compound 86, Ethyl 2-((4-((3-methyl-4-((6-methylpyridin-3-yl)oxy)phenyl)amino)-5,8-dihydropyrido[4′,3′:4,5]thieno[2,3-d]pyrimidin-7(6H)-yl)methyl)acrylate] | > 10
